Patent EP3072514A1, “Novel oral anticoagulants (NOACs) for preventing development and aggravation of atrial fibrillation” (Université Pierre et Marie Curie - Paris 6 (UPMC), priority 2015, dated 2016)

Assays:
Assay type in all cases: in vivo, Male OFA Sprague-dawley rats
BNP = assay: mRNA expression by real-time qPCR in atria and ventricle of I/R rats; conditions: 6 mg/kg/day, 2 months
Text: (§1) • Figure 1 is a combination of two graphs showing left atrium (LA) area after one month of treatment with DTI Dabigatran (A) or S35792 (B). Vehicle (V) is 60% H2O/40% PEG 300 for dabigatran and saline for S35972. Treatment of rats started just after thoracotomy without (Sham) or with occlusion of left coronary artery followed by reperfusion (I/R). Results are presented as mean +/- S.E.M, *P<0.05, **P<0.01 and *** P<0.001 vs Sham; ^##P<0.01 and ^###P<0.001 vs untreated I/R. • Figure 2 is a combination of graphs showing left ventricular end-diastolic (LVED) diameter and fractional shortening (FS) after one month of treatment with Dabigatran (A) or S35792 (B). Vehicle (V) is 60% H2O/40% PEG 300 for dabigatran and saline for S35972. Treatment of rats started just after thoracotomy without (Sham) or with occlusion of left coronary artery followed by reperfusion (I/R). Results are presented as mean +/- S.E.M. * P<0.05; ** P<0.001, *** P<0.001 vs Sham; #P<0.05 vs untreated I/R. • Figure 3 is a combination of two graphs showing thrombin time (TT), which reflects anticoagulant activity, and plasma concentrations of Dabigatran (A) and S35792 (B) in rats after throracotomy with occlusion of left coronary artery followed by reperfusion (I/R). Vehicle (V) is 60% H2O/40% PEG 300 for dabigatran and saline for S35972. Tests were carried out on blood collected by cardiac puncture at sacrifice (i.e. for Dabigatran, 90 minutes after last oral administration). DTI plasma levels are quantified using LC-MS/MS. TT are expressed as mean +/- S.E.M with reference to the mean value of sham animals that underwent thoracotomy only. *** P<0.001 vs untreated I/R. • Figure 4 is a combination of three graphs showing left atrium (LA) area (A) and diameter (B) and left ventricle end-diastolic (LVED) diameter (C) after two months of treatment with S35972. Treatment of rats started just after thoracotomy without (Sham) or with occlusion of left coronary artery followed by reperfusion (I/R). LA area was measured by bidimensional echocardiography. LA and LVED diameters were measured in time-motion mode. Results are presented as mean +/- S.E.M. *P<0.05, **P<0.01 and *** P<0.001 vs Sham; ^#P<0.05 ^###P<0.001 vs untreated I/R. • Figure 5 is a graph showing the impact of S35972 administration during two months on the duration of an episode of AF in rats undergone thoracotomy without (Sham) or with occlusion of left coronary artery followed by reperfusion (I/R). AF duration is measured as the time between the end of the electric stimulation and the return to sinusoidal rhythm. Results are presented as mean +/- S.E.M, *P<0.05 vs Sham; ^##P<0.01 vs untreated I/R, • Figure 6 is a combination of graphs showing the impact of treatments with 25 mg/kg/d dabigatran for 4 weeks and 6 mg/kg/d S35972 for 8 weeks on atrial (A) and ventricular (B) expression of myosin heavy chain (MHC) isoforms. Rats undergone thoracotomy without (Sham) or with occlusion of left coronary artery followed by reperfusion (I/R). Expression of mRNA was measured with real-time qPCR. Results are presented as mean +/- S.E.M. *P<0.05, **P<0.01 vs Sham; #P<0.05 vs untreated I/R. • Figure 7 is a combination of graphs showing the impact of 2 months S35972 administration on the expression of the hypertrophic markers, brain and atrial natriuretic peptides (BNP and ANP) in atria (A) and ventricle (B). Rats undergone thoracotomy without (Sham) or with occlusion of left coronary artery followed by reperfusion (I/R). Expression of mRNA was measured with real-time qPCR. Results are presented as mean +/- S.E.M. *P<0.05, ***P<0.001 vs Sham; #P<0.05, ##P<0.01 vs untreated I/R. • Figure 8 is a combination of graphs showing the impact of 2 months S35972 administration on the expression of fibrotic markers, plasminogen activator inhibitor 1 (PAI-1, A) and heparin-binding epidermal growth factor (HB-EGF, B) in atria and ventricle. Rats undergone thoracotomy without (Sham) or with occlusion of left coronary artery followed by reperfusion (I/R). […]

HB-EGF = assay: as above; conditions: 2 months administration
Text: as §1

ANP = assay: as above; conditions: 6 mg/kg/day, 2 months
Text: as §1

PAI-1 = assay: as above; conditions: 2 months administration
Text: as §1

[1] = system: rats with occlusion of left coronary artery followed by reperfusion (I/R); assay: Echocardiographic evaluation of left atrium and left ventricle in rats after ischemia/reperfusion (I/R)
Text: • Figure 1 is a combination of two graphs showing left atrium (LA) area after one month of treatment with DTI Dabigatran (A) or S35792 (B). Vehicle (V) is 60% H2O/40% PEG 300 for dabigatran and saline for S35972. Treatment of rats started just after thoracotomy without (Sham) or with occlusion of left coronary artery followed by reperfusion (I/R). […] Vehicle (V) is 60% H2O/40% PEG 300 for dabigatran and saline for S35972. Treatment of rats started just after thoracotomy without (Sham) or with occlusion of left coronary artery followed by reperfusion (I/R). Results are presented as mean +/- S.E.M. * P<0.05; ** P<0.001, *** P<0.001 vs Sham; #P<0.05 vs untreated I/R. • Figure 3 is a combination of two graphs showing thrombin time (TT), which reflects anticoagulant activity, and plasma concentrations of Dabigatran (A) and S35792 (B) in rats after throracotomy with occlusion of left coronary artery followed by reperfusion (I/R). Vehicle (V) is 60% H2O/40% PEG 300 for dabigatran and saline for S35972. Tests were carried out on blood collected by cardiac puncture at sacrifice (i.e. for Dabigatran, 90 minutes after last oral administration). DTI plasma levels are quantified using LC-MS/MS. TT are expressed as mean +/- S.E.M with reference to the mean value of sham animals that underwent thoracotomy only. *** P<0.001 vs untreated I/R. • Figure 4 is a combination of three graphs showing left atrium (LA) area (A) and diameter (B) and left ventricle end-diastolic (LVED) diameter (C) after two months of treatment with S35972. Treatment of rats started just after thoracotomy without (Sham) or with occlusion of left coronary artery followed by reperfusion (I/R). LA area was measured by bidimensional echocardiography. LA and LVED diameters were measured in time-motion mode. Results are presented as mean +/- S.E.M. *P<0.05, **P<0.01 and *** P<0.001 vs Sham; ^#P<0.05 ^###P<0.001 vs untreated I/R. • Figure 5 is a graph showing the impact of S35972 administration during two months on the duration of an episode of AF in rats undergone thoracotomy without (Sham) or with occlusion of left coronary artery followed by reperfusion (I/R). AF duration is measured as the time between the end of the electric stimulation and the return to sinusoidal rhythm. […] Rats undergone thoracotomy without (Sham) or with occlusion of left coronary artery followed by reperfusion (I/R). Expression of mRNA was measured with real-time qPCR. […] Treatment of rats started one month post thoracotomy without (Sham) or with occlusion of left coronary artery followed by reperfusion (I/R). LA area was measured by bidimensional echocardiography. LVED and LA diameters were measured in time-motion mode. […] Rats undergone thoracotomy without (Sham) or with occlusion of left coronary artery followed by reperfusion (I/R). AF duration is measured as the time between the end of the electric stimulation and return to sinusoidal rhythm. Results are presented as mean +/- S.E.M.
Animals were anesthetized with 30 mg/kg sodium pentobarbital, and then intubated and ventilated at 60 respirations/min while body temperature was maintained at 37°C. Rats underwent thoracotomy and their left coronary artery was either left intact (Sham) or occluded with a 4.0 silk suture at 1 mm from the artery origin. Ischemia was maintained for 30 min and the clamp was removed to initiate a definitive reperfusion phase. […]

[2] = 6 mg/kg/d during one month, treatment started one month after the I/R episode
[3] = 6 mg/kg/day for 8 weeks, started just after I/R

Substance: 4-oxo-3-(2-pyridin-2-ylethylamino)-4,6,7,8-tetrahydro-pyrrolo[1,2-a]pyrazine-6-carboxylic acid 2-ethylcarbamoyl methoxy-benzylamide [S35972]
- synthesis of BNP (mRNA) in the atrium (BNP; atrium): prevents the synthesis of BNP
- synthesis of BNP (mRNA) in the ventricle (BNP; ventricle): prevents the synthesis of BNP
- induction of HB-EGF mRNA in atria (HB-EGF; atria): prevents the induction of HB-EGF mRNA
- induction of HB-EGF mRNA in ventricles (HB-EGF; ventricles): prevents the induction of HB-EGF mRNA
- expression of ANP (mRNA) in the atrium (ANP; atrium): does not impact its expression
- synthesis of ANP (mRNA) in the ventricle (ANP; ventricle): significantly reduces its synthesis
- mRNA expression of PAI-1 in atria (PAI-1; atria): has an inhibitory effect
- mRNA expression of PAI-1 in ventricles (PAI-1; ventricles): inhibitory effect in atria only
- left atrium area ([1]; 3 mg/kg/day for 8 weeks, started just after I/R): decreases the left atrium area
- left atrium diameter [1, 2]: decreased to an intermediate value between Sham and I/R rats
- left ventricle end-diastolic diameter [1, 2]: had no effect
- left atrium area ([1]; 6 mg/kg/d during one month, treatment started one month after the I/R episode (established atrial dilatation)): significantly reduced
- atrial diameter [1, 3]: significantly reduces
- left atrium area [1, 3]: decreases the left atrium area
